Measured values as given in ChEMBL document CHEMBL1201862, “PubChem BioAssay data set” (2004).
Values belong to the compound of their own block, whether it stands above or below them. Calls of active or inactive are those of the source.

How the values were obtained:
Mu-type opioid receptor = Mu-type opioid receptor (Homo sapiens, UniProt P35372); format: functional, cell-based;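 note: U2OS cells with beta-arrestin recruitment to OPRM1 by beta-gal complementation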
[1] = biological target: 5-hydroxytryptamine receptor 2A (Mus musculus, UniProt P35363); format: functional, cell-based;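 note: CHO-K1 cells with tagged receptor and beta-arrestin; agonist potency measured as compound-induced activation of the receptor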
5-hydroxytryptamine receptor 2A, sequence (P35363 whole entry): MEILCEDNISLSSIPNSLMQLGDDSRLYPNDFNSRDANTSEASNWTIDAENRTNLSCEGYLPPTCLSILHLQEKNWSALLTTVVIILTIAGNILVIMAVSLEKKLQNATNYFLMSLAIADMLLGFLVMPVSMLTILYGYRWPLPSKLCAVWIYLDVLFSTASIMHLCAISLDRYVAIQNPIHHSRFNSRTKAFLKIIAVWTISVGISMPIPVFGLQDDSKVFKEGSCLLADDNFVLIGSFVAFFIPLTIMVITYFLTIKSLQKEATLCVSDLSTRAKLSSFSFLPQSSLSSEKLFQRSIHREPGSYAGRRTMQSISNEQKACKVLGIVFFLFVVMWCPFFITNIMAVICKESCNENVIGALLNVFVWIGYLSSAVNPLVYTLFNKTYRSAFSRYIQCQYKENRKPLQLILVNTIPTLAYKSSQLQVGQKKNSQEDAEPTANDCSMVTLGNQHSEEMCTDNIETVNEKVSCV

[2] = cytotoxicity in HEK293 background cells – cell-based, dry powder, set 2, counter-screen for EBV LMP1 inhibitor project, dose response (AID 624374); format: functional
Protein skinhead-1 = biological target: T1, Protein skinhead-1 (Caenorhabditis elegans, UniProt P34707); format: functional
T1 sequence (P34707 whole entry): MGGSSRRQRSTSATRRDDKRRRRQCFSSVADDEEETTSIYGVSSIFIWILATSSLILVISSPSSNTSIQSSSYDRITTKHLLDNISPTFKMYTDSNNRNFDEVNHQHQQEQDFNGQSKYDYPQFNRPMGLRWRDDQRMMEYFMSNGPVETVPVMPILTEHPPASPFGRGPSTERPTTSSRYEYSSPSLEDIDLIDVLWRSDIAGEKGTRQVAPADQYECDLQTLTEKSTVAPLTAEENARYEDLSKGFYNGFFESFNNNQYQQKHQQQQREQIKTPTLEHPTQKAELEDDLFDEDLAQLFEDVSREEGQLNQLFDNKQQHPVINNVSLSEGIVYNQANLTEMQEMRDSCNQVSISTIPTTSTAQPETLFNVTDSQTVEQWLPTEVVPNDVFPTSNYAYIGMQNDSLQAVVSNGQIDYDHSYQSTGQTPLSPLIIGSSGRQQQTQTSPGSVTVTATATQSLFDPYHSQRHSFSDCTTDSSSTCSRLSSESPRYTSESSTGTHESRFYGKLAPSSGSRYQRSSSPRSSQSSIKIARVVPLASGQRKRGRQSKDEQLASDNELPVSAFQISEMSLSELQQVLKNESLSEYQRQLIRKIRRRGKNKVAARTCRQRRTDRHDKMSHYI

Cytochrome P450 2C9 = Cytochrome P450 2C9 (Homo sapiens, UniProt P11712)
Cytochrome P450 2C9, sequence (P11712 whole entry): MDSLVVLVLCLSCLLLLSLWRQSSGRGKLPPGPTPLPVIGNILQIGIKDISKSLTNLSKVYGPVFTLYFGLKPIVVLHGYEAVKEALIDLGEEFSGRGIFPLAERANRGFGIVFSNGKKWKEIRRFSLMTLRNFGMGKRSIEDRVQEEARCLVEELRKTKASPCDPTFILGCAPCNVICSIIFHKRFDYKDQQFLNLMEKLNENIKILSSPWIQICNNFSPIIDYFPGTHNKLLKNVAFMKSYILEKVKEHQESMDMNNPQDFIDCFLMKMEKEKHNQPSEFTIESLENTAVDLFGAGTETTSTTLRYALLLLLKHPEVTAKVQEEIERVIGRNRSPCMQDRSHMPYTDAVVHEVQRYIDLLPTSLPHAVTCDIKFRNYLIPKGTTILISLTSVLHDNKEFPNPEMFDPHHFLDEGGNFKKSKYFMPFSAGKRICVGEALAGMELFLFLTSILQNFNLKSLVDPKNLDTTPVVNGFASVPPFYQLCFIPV

Cytochrome P450 2D6 = Cytochrome P450 2D6 (Homo sapiens, UniProt P10635);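 note: CYP2D6 member of a cytochrome P450 panel assay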
Cytochrome P450 2D6, sequence (P10635 whole entry): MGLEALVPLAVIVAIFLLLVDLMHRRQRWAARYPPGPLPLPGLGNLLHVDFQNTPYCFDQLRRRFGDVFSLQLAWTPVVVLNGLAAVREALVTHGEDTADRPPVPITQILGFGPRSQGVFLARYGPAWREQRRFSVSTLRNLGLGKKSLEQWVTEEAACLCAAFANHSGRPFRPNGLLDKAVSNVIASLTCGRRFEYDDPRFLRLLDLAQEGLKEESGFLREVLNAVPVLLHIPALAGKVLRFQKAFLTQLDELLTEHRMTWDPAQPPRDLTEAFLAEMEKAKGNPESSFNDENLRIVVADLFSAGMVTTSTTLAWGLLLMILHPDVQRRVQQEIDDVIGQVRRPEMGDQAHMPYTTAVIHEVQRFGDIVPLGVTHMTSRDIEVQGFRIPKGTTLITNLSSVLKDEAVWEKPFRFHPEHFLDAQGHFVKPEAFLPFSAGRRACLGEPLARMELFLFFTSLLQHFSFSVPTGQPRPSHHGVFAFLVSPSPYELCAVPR

Cytochrome P450 3A4 = Cytochrome P450 3A4 (Homo sapiens, UniProt P08684);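 note: CYP3A4 tested as one member of a cytochrome P450 panel screen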
Cytochrome P450 3A4, sequence (P08684 whole entry): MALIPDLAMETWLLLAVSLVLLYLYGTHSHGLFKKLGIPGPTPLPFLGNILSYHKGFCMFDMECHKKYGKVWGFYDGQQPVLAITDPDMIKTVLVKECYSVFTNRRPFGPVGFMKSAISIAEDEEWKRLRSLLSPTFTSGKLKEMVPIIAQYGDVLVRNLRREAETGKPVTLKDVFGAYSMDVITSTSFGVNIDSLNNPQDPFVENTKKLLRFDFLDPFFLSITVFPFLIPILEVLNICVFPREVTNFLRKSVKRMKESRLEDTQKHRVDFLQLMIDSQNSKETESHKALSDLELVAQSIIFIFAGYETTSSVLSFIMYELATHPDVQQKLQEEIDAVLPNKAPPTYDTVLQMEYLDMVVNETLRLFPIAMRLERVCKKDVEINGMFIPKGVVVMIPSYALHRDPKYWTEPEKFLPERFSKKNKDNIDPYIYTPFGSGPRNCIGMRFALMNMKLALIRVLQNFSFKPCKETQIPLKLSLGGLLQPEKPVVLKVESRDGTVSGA

[3] = biological target: T2, Corticotropin-releasing factor receptor 2/Corticotropin-releasing factor-binding protein (Homo sapiens, UniProt P24387+Q13324); test: activators of CRF receptor 2 with binding protein – uHTS hits, confirmation (AID 602473); format: functional; settings: read-out: EC50_Mean
T2 sequence (Q13324 whole entry): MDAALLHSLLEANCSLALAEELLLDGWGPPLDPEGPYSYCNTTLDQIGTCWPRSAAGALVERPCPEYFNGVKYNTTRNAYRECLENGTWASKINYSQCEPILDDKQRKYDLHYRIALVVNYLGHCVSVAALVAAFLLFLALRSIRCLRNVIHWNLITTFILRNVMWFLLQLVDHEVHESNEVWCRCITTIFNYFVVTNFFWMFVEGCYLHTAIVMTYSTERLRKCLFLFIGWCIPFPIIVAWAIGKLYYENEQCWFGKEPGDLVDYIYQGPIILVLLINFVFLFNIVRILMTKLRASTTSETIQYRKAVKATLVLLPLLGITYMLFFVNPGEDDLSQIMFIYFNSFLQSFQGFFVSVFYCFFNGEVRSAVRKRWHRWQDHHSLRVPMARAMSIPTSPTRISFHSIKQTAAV
T2 sequence (P24387 whole entry): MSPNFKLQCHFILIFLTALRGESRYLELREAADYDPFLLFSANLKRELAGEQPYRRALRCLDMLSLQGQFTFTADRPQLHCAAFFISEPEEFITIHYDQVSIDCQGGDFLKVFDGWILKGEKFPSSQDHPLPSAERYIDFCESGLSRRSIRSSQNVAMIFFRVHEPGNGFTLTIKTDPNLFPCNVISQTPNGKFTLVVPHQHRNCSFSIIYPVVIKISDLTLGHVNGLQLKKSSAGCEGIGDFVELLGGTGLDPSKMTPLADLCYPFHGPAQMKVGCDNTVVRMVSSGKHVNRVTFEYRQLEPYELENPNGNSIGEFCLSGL

[4] = biological target: T2, Corticotropin-releasing factor receptor 2/Corticotropin-releasing factor-binding protein; test: Dose Response confirmation of uHTS hits for small molecule antagonists of the CRF-binding protein and CRF-R2 receptor complex.; format: functional; settings: read-out: IC50_Mean
[5] = blockers of CRF-binding protein–CRF-R2 complex – cell-based, uHTS hits, 384-well, dose response (AID 651639); format: functional, Homo sapiens; settings: read-out: IC50_Mean
HeLa = test: ATP-based viability loss in HeLa cells – cell-based, CellTiter-Glo luminescence, cherry-pick samples, cytotoxicity control for MITF activator project, dose response (AID 540259); format: functional; settings: Homo sapiens
[6] = cAMP pathway inhibition in counterscreen cell line – TR-FRET cAMP detection, counter-screen for MC4R biased antagonist project, dose response (AID 602305); format: functional, cell-based;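 note: U2OS cells stimulated with forskolin near its EC80 as the cAMP inducer; potency is for inhibition of forskolin-stimulated cAMP signaling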
Melanocortin receptor 4 = Melanocortin receptor 4 (Homo sapiens, UniProt P32245); test: inhibitors of MC4R cAMP signaling – cell-based, TR-FRET, biased antagonists, dose response (AID 602298); format: functional;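 note: antagonist potency against agonist-stimulated cAMP production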
Melanocortin receptor 4, sequence (P32245 whole entry, the tested form may be a part): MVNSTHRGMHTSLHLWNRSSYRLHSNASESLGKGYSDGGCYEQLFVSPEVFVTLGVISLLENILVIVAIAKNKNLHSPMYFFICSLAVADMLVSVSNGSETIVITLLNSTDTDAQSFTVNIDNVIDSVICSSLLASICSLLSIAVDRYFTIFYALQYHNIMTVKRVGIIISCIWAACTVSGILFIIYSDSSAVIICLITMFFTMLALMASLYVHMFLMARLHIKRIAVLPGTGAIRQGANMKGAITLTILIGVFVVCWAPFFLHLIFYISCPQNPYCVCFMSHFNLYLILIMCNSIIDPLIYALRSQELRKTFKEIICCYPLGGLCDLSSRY

[7] = inhibition of ARNT PAS-B/TACC3 complex formation – biochemical, AlphaScreen, cherry-picked samples, confirmation (AID 651703); format: functional, Homo sapiens;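 note: His-tagged ARNT PAS-B domain paired with GST-TACC3 E629A dimer coactivator fragment; potency of inhibitors that break up the complex and lower AlphaScreen signal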
[8] = biological target: DNA repair and recombination protein RAD54-like (Homo sapiens, UniProt Q92698); test: RAD54 Holliday junction migration blockers – biochemical, fluorescence, cherry-picked samples, dose series, confirmation (AID 651657); format: functional
DNA repair and recombination protein RAD54-like, sequence (Q92698 whole entry): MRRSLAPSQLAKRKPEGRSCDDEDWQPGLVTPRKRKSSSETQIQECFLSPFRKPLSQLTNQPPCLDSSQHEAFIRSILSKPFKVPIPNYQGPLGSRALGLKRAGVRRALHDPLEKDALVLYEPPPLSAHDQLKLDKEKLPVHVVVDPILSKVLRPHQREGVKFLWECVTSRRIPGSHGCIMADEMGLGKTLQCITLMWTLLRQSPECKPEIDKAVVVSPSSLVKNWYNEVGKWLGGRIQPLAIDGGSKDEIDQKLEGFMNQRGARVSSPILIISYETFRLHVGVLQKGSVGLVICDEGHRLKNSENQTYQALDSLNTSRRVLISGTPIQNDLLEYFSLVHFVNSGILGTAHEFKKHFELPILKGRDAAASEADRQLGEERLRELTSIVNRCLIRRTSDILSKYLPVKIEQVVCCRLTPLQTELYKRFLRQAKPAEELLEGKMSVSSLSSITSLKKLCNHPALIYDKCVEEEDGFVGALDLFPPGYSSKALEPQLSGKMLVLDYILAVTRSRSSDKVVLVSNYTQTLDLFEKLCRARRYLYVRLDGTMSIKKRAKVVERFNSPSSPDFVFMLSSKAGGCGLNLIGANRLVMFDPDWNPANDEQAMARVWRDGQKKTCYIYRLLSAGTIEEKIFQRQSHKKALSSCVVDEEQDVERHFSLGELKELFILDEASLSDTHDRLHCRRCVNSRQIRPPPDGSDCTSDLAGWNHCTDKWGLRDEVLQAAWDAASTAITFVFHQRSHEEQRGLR

Mu-type opioid receptor, sequence (P35372 whole entry): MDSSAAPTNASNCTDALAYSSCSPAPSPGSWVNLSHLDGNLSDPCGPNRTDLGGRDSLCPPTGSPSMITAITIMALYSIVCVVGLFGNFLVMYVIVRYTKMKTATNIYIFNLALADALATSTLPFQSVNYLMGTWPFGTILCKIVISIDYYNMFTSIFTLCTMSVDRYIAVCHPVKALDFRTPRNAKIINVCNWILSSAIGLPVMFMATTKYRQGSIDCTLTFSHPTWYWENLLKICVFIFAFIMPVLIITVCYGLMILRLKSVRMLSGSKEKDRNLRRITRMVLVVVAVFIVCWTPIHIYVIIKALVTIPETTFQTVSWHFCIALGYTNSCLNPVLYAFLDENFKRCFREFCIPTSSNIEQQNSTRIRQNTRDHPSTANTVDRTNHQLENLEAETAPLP

EC50 (Mu-type opioid receptor): 92.5 µM (inactive)
EC50 [1]: 4.33 µM (active)
Structure (SMILES): CC(C)[C@H](NC(=O)c1ccc(C(C)(C)C)cc1)C(=O)N1CCN(Cc2ccc3c(c2)OCO3)CC1

Structure (SMILES): C[C@H](CO)N1C[C@H](C)[C@H](CN(C)Cc2ccc(Oc3ccccc3)cc2)Oc2ccc(NC(=O)CCCN(C)C)cc2C1=O
AbsAC35 [2]: 286.99 µM

IC50 (Protein skinhead-1): > 100 µM (inactive)
AC50 (Cytochrome P450 2C9): inconclusive
AC50 (Cytochrome P450 2D6): inconclusive
AC50 (Cytochrome P450 3A4): 14.1 µM (inconclusive)
Structure (SMILES): CCOC(=O)NCc1ccc2c(c1)cc(C)n2C

EC50 [3]: > 53 µM (inactive)
IC50 [4]: 13.6 µM (active)
IC50 [5]: > 20 µM (inactive)
Structure (SMILES): CCOC(=O)C(NC(=O)CC(C)C)(Nc1sc(C)c(CC)c1C#N)C(F)(F)F (centres undefined)

Structure (SMILES): CN(CC(=O)Nc1ccccc1Br)C(=O)c1cc2c(s1)CCCCC2
AC50 (HeLa): > 350 µM (inactive)

Structure (SMILES): CC(NC(=O)COC(=O)CNS(=O)(=O)/C=C/c1ccccc1)c1ccccc1 (centres undefined)
IC50 [6]: > 64.6 µM (inactive)
IC50 (Melanocortin receptor 4): > 64.6 µM (inactive)

EC50 (Mu-type opioid receptor): 92.5 µM (inactive)
EC50 [1]: 17.2 µM (inactive)
Structure (SMILES): COc1ccc(S(=O)(=O)NCC(c2ccc3c(c2)OCO3)N2CCN(c3ccccc3)CC2)cc1 (centres undefined)

Structure (SMILES): Cc1nn2c(nc1=O)NNC2(C)C(C)(C)C (centres undefined)
AC50 [7]: 130 µM (active)

AC50 [8]: 72.5 µM (active)
Structure (SMILES): O=C(Nc1cccc(Br)c1)c1cc(S(=O)(=O)N2CCOCC2)cs1

Structure (SMILES): C[C@H](NC(=O)C[C@H]1C=C[C@H](NC(=O)Cc2ccccn2)[C@H](CO)O1)c1ccccc1
AbsAC35 [2]: 200 µM

Structure (SMILES): CCCCNC(=O)CCC(=O)N1CCN(C(c2ccccc2)c2ccccc2)CC1
AC50 [7]: 81 µM (active)
